Source: patent publication US12486219B2, “Modified tetracyclines for treatment of alcohol use disorder, pain and other disorders involving potential inflammatory processes” (Texas Tech University System, priority 2018, dated 2025)

Experiments:
[1] = tested on: binge ethanol consumption; test: Binge ethanol consumption, minocycline derivatives (FIGS. 8C to 15C); format: in vivo; settings: figure legend only, values not given
DBA/2J mice = test: Alcohol withdrawal, Handling Induced Convulsion scores; format: in vivo
Description: Female and male DBA/2J mice were tested with CMM1, 100 mg/kg per p.o., at 2 hrs following 4 g/kg 20% ethanol in saline. Shown are the Handling Induced Convulsion scores, background subtracted and summed over 24 hours. […] Mean±SEM, n=5/group.

E. coli = E. coli zone of inhibition (ZOI) and recovered colony forming units (CFU) per disk; format: cell-based; settings: dose response
Description: Minocycline and two acetylated derivatives, CMM1 (B) and CMM2 (Y), were tested in a dose response manner for A) zone of inhibition (ZOI) and B) recovered colony forming units (CFU) per disk.

[2] = tested on: Drinking In the Dark (DID) murine model of binge drinking; test: Drinking In the Dark (DID) murine model of binge drinking; format: in vivo, mice; settings: 0, 25, 35, 50 and 100 mg/kg p.o. vs control; n=4/group; p=0.004; dose-dependent
Description: Using a standard Drinking In the Dark (DID) murine model of binge drinking, we tested the effect of 0, 25, 35, 50 and 100 mg/kg per os (p.o.) acetylated minocycline (derivative Y, or CMM1) vs control.

AUD traits = settings: seven tetracyclines tested; cited from earlier work
[3] = cited from earlier work
DID ethanol consumption = DID ethanol consumption after "sterilization" of the GI microbiome; format: in vivo, mice; settings: ten-day ampicillin, neomycin, metronidazole, vancomycin; tigecycline 100 mg/kg i.p.; n=7
Description: A ten-day “sterilization” treatment with ampicillin, neomycin, metronidozale and vancomycin was used. Bedding was changed daily to avoid repopulation. DID was started on day 11 after one day of no metronidazole. Tigecycline was given at 100 mg/kg intraperitoneal (i.p.) n=7, mean±SEM.

DID consumption = DID consumption after intracerebroventricular (ICV) drug; format: in vivo, mice; settings: 3 ul of drug (9 mg/ml) icv 20 hrs prior to DID testing; n=9-11; p<0.01
Description: To test the hypothesis that tigecycline works at the level of the CNS, rather than the PNS, 3 ul of drug (9 mg/ml) was given icy 20 hrs prior to DID testing. n=9-11, mean±SEM, **p<0.01.

Q: For `CCCCOc1ccc(N(C)C)c2c1C(=O)C1=C(O)C3(O)C(=O)C(C(N)=O)=C(O)C(N(C)C)C3CC1C2` (stereo not shown) [Butyl Ether Minocycline, 10-Butoxy-4,7-bis-dimethylamino-3,12,12a-trihydroxy-1,11-dioxo-1,4,4a,5,5a,6,11,12a-octahydro-naphthacene-2-carboxylic acid amide], which binge ethanol consumption [1] is on record?
A: reduction of binge ethanol consumption

Q: Which “alcohol withdrawal symptoms (Handling Induced Convulsion scores summed over 24 hours)” value (DBA/2J mice; 100 mg/kg p.o. at 2 hrs following 4 g/kg 20% ethanol, female and male DBA/2J mice, n=5/group) does the source give for `CC(=O)NC(=O)c1c(OC(C)=O)c2c(c(N(C)C)c1OC(C)=O)CC1Cc3c(N(C)C)ccc(OC(C)=O)c3C(=O)C1=C2OC(C)=O` (stereo not shown) [CMM1] here?
A: reduced alcohol withdrawal symptoms

Q: What about the “efficacy on withdrawal compared with minocycline” value (DBA/2J mice; 100 mg/kg p.o., DBA/2J mice) of the same compound?
A: more effective than the parent drug, minocycline

Q: What about the “efficacy on withdrawal, females vs males” value (DBA/2J mice; 100 mg/kg p.o., DBA/2J mice) of the same compound?
A: more effective in females

Q: What about the “antibiotic activity (ZOI and CFU per disk)” value (E. coli) of the same compound?
A: loss of antibiotic activity even at high doses

Q: What about the “ethanol consumption (DID)” value [2] of the same compound?
A: significantly reduced drinking

Q: Which “antibiotic activity (ZOI and CFU per disk)” value (E. coli) does the source give for `CC(=O)NC(=O)c1c(OC(C)=O)c2c(c(N(C)C)c1OC(C)=O)CC1Cc3c(N(C)C)ccc(OC(C)=O)c3C(=O)C1=C2O` (stereo not shown) [CMM2] here?
A: loss of antibiotic activity even at high doses

Q: With `CC(=O)NC(=O)c1c(O)cc2c(c1O)C(O)=C1C(=O)c3c(OC(C)=O)ccc(N(C)C)c3CC1C2` (stereo not shown) [De Methyl Diacetate Minocycline, Acetic acid 9-acetylcarbamoyl-4-dimethylamino-8,10,11-trihydroxy-12-oxo-5,5a,6,12-tetrahydro-naphthacen-1-yl ester] as the compound, how does the binge ethanol consumption [1] read?
A: reduction of binge ethanol consumption

Q: For `C[C@H]1c2cccc(O)c2C(=O)C2=C(O)[C@]3(O)C(=O)C(C(N)=O)=C(O)[C@@H](N(C)C)[C@@H]3[C@@H](O)[C@@H]21` [Doxycycline], which “efficacy against AUD traits” value (AUD traits) is on record?
A: effective

Q: Which binge ethanol consumption [1] does the source give for `CCOc1ccc(N(C)C)c2c1C(=O)C1=C(O)C3(O)C(=O)C(C(N)=O)=C(O)C(N(C)C)C3CC1C2` (stereo not shown) [Ethyl Ether Minocycline, 4,7-Bis-dimethylamino-10-ethoxy-3,12,12a-trihydroxy-1,11-dioxo-1,4,4a,5,5a,6,11,12a-octahydro-naphthacene-2-carboxylic acid amide] here?
A: reduction of binge ethanol consumption

Q: With `COc1ccc(N(C)C)c2c1C(=O)C1=C(O)C3(O)C(=O)C(C(N)=O)=C(O)C(N(C)C)C3CC1C2` (stereo not shown) [Methyl Ether Minocycline, 4,7-Bis-dimethylamino-3,12,12a-trihydroxy-10-methoxy-1,11-dioxo-1,4,4a,5,5a,6,11,12a-octahydro-naphthacene-2-carboxylic acid amide] as the compound, how does the binge ethanol consumption [1] read?
A: reduction of binge ethanol consumption

Q: With `COc1ccc(N(C)C)c2c1C(=O)C1=C(O)c3c(O)c(C(=O)NC(C)=O)c(O)c(N(C)C)c3CC1C2` (stereo not shown) [Methyl Ether N-Monoacetate Minocycline, 4,7-Bis-dimethylamino-1,3,12-trihydroxy-10-methoxy-11-oxo-5,5a,6,11-tetrahydro-naphthacene-2-carboxylic acid acetyl-amide] as the compound, how does the binge ethanol consumption [1] read?
A: reduction of binge ethanol consumption

Q: Which binge ethanol consumption [1] does the source give for `COc1ccc(N(C)C)c2c1C(=O)C1=C(O)c3c(c(N(C)C)c(OC(C)=O)c(C(=O)NC(C)=O)c3OC(C)=O)CC1C2` (stereo not shown) [Methyl Ether Tri Acetate Minocycline, Acetic acid 4-acetoxy-3-acetylcarbamoyl-1,10-bis-dimethylamino-5-hydroxy-7-methoxy-6-oxo-6,11,11a,12-tetrahydro-naphthacen-2-yl ester] here?
A: reduction of binge ethanol consumption

Q: With `CN(C)c1ccc(O)c2c1CC1CC3C(N(C)C)C(O)=C(C(N)=O)C(=O)C3(O)C(O)=C1C2=O` (stereo not shown) [Minocycline, 4.7-Bis-dimcthylamino-3,10,12,12a-tctrahydroxy-1,11-dioxo-1,4.4a,5,5a,6,11,12 a-octahydro-naphthacene-2-carboxylic acid amide] as the compound, how does the “efficacy against AUD traits” value (AUD traits) read?
A: effective

Q: For `CN(C)[C@@H]1C(O)=C(C(N)=O)C(=O)[C@@]2(O)C(O)=C3C(=O)c4c(O)cccc4[C@@](C)(O)[C@H]3[C@H](O)[C@@H]12` [Oxytetracycline], which LogD [3] is on record?
A: −4.25

Q: What about the LogP [3] of the same compound?
A: −1.5

Q: For `CC(=O)NC(=O)c1c(OC(C)=O)c2c(c(N(C)C)c1OC(C)=O)CC1Cc3c(N(C)C)ccc(OC(C)=O)c3C(=O)C1=C2OC(C)=O` (stereo not shown) [Penta Acetyl Minocycline, Acetic acid 3,10,12-triacetoxy-2-acetylcarbamoyl-4,7-bis-dimethylamino-11-oxo-5,5a,6,11-tetrahydro-naphthacen-1-yl ester], which binge ethanol consumption [1] is on record?
A: reduction of binge ethanol consumption

Q: For `CCCOc1ccc(N(C)C)c2c1C(=O)C1=C(O)C3(O)C(=O)C(C(N)=O)=C(O)C(N(C)C)C3CC1C2` (stereo not shown) [Propyl Ether Minocycline, 4,7-Bis-dimethylamino-3,12,12a-trihydroxy-1,11-dioxo-10-propoxy-1,4,4a,5,5a,6,11,12a-octahydro-naphthacene-2-carboxylic acid amide], which binge ethanol consumption [1] is on record?
A: reduction of binge ethanol consumption

Q: For `CC(=O)NC(=O)c1c(OC(C)=O)c2c(c(N(C)C)c1OC(C)=O)CC1Cc3c(N(C)C)ccc(OC(C)=O)c3C(=O)C1=C2O` (stereo not shown) [Tetra Acetyl Minocycline, Acetic acid 3,10-diacetoxy-2-acetylcarbamoyl-4,7-bis-dimethylamino-12-hydroxy-11-oxo-5,5a,6,11-tetrahydro-naphthacen-1-yl ester], which binge ethanol consumption [1] is on record?
A: reduction of binge ethanol consumption

Q: For `CN(C)c1cc(NC(=O)CNC(C)(C)C)c(O)c2c1C[C@H]1C[C@H]3[C@H](N(C)C)C(O)=C(C(N)=O)C(=O)[C@@]3(O)C(O)=C1C2=O` [Tigecycline], which “DID ethanol consumption / tigecycline efficacy, sterilized vs not” value (DID ethanol consumption) is on record?
A: No significant difference

Q: What about the DID consumption (DID consumption) of the same compound?
A: reduced DID consumption

Q: What about the “efficacy against AUD traits” value (AUD traits) of the same compound?
A: effective
